From US6521619B2, “Aryl phenylcyclopropyl sulfide derivatives and their use as cell adhesion inhibiting anti-inflammatory and immune suppressive agents” (Icos Corporation, priority 2000, dated 2003)

target: T1, ICAM-1/LFA-1 interaction (recombinant LFA-1, biotinylated recombinant ICAM-1/Ig) (Homo sapiens, UniProt P20701); experiment: ICAM-1/LFA-1 Biochemical Interaction Assay (46A); format: binding; settings: @ 2 μM compound
T1 construct: Recombinant LFA-1 (100 mL of 0.7 mg/ml, ICOS Corporation) in D-PBS is then added to each well
Protocol: Compounds that antagonize the interaction between ICAM-1 and LFA-1 can be identified, and their activities quantitated, using both biochemical and cell-based adhesion assays. A primary biochemical assay, described below as assay 46A, was utilized to measure the ability of the present compounds to block the interaction between the integrin LFA-1 and its adhesion partner ICAM-1.
46A. ICAM-1/LFA-1 Biochemical Interaction Assay
In the biochemical assay, 100 mL of anti-LFA-1 antibody (ICOS Corporation) at a concentration of 5 mg/ml in Dulbecco's phosphate-buffered saline (D-PBS) is used to coat wells of a 96-well microtiter plate overnight at 4° C. The wells are then washed twice with wash buffer (D-PBS w/o Ca^++ or Mg^++, 0.05% Tween 20) and blocked by addition of 200 mL of D-PBS, 5% fish skin gelatin. Recombinant LFA-1 (100 mL of 0.7 mg/ml, ICOS Corporation) in D-PBS is then added to each well. Incubation continues for 1 hour at room temperature and the wells are washed twice with wash buffer. Serial dilutions of compounds being assayed as ICAM-1/LFA-1 antagonists, prepared as 10 mM stock solutions in dimethyl sulfoxide (DMSO), are diluted in D-PBS, 2 mM MgCl2, 1% fish skin gelatin and 50 mL of each dilution added to duplicate wells. This is followed by addition of […] of 0.8 mg/ml biotinylated recombinant ICAM-1/Ig (ICOS Corporation) to the wells and the plates are incubated at room temperature for 1 hour The wells are then washed twice with wash buffer and 100 mL of Europium-labeled Streptavidin (Wallac Oy) diluted 1:100 in Delfia assay buffer (Wallac Oy) are added to the wells. Incubation proceeds for 1 hour at room temperature. […] Incubation proceeds for 5 minutes with constant mixing.
where “background” refers to wells that are not coated with anti-LFA-1 antibody.

T1 sequence (P20701 26-1170): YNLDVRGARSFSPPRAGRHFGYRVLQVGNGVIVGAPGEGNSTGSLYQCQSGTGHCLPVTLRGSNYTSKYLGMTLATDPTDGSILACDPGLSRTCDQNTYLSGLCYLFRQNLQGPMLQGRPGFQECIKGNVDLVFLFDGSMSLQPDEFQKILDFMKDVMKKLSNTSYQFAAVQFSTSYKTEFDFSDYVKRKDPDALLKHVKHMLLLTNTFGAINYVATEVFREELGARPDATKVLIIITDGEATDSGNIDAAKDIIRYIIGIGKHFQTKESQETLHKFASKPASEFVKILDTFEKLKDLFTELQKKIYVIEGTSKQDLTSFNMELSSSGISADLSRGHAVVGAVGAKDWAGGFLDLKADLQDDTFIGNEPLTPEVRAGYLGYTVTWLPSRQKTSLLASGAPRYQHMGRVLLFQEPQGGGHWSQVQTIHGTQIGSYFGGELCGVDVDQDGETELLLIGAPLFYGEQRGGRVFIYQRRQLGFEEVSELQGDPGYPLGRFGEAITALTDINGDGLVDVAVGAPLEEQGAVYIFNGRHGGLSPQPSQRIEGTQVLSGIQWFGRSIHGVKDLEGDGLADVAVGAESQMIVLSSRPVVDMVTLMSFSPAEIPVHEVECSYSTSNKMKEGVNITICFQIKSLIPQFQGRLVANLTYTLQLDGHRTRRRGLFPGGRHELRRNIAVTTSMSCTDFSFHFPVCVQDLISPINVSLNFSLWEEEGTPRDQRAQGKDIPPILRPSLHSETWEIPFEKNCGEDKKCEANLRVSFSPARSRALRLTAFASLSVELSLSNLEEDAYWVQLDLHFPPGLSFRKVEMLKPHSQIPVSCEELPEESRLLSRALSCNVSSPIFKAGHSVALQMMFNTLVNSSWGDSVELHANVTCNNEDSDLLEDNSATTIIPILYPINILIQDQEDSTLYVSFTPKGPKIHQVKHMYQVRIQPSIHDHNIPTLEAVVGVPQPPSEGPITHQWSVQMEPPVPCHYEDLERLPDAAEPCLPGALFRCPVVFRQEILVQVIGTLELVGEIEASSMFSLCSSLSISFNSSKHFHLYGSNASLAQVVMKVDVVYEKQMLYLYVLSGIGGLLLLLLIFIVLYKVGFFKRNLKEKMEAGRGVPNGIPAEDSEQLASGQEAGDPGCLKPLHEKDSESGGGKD
T1 sequence (P05107 23-769 partner): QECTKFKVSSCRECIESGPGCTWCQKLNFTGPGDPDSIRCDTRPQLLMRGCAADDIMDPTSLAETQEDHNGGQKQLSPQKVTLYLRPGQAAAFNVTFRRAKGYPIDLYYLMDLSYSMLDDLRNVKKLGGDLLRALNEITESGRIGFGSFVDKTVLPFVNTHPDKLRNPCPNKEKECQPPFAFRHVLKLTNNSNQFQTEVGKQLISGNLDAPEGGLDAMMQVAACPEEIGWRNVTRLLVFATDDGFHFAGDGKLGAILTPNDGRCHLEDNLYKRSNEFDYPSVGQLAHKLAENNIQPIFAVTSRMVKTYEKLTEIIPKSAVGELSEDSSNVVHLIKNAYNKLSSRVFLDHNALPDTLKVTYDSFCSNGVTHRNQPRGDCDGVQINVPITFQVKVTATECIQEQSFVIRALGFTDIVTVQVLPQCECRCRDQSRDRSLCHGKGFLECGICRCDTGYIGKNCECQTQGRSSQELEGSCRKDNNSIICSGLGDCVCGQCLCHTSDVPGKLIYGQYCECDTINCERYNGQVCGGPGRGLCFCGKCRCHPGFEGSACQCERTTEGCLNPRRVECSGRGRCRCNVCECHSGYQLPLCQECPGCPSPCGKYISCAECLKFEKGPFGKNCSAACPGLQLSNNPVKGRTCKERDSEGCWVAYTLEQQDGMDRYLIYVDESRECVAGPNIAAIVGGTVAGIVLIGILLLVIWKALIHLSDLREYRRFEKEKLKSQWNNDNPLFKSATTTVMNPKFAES

inhibition at 2 µM [%] | Compound | % inhibition [% @ 2 μM]
93 | O=C(O)C1CCCN(c2ccccc2Sc2ccc(C3CC3C(=O)NCCCN3CCCC3=O)cc2C(F)(F)F)C1 (mixture of isomers) [Example 6, (±)-(2-(2-carboxyethyl)phenyl)[2-trifluoromethyl-4-(trans-(2-((3-(1-pyrrolidin-2-onyl)-prop-1-ylamino)carbonyl)cycloprop-1-yl)phenyl]sulfide] | 
 | (±)-(2-Bromophenyl)[2-trifluoromethyl-4-(trans-(2-((3-(1-pyrrolidin-2-onyl)-prop-1-ylamino)carbonyl)cycloprop-1-yl)phenyl]sulfide [Example 1] | 96

same assay, conditions: @ 2 μM compound; 2 µM

% inhibition [% @ 2 μM] | Compound
81 | O=C(NCCCN1CCCC1=O)[C@@H]1C[C@H]1c1ccc(Sc2ccccc2Br)c(C(F)(F)F)c1 (relative stereo) [Example 4]
94 | O=C(NCCCN1CCCC1=O)[C@@H]1C[C@H]1c1ccc(Sc2ccccc2Br)c(C(F)(F)F)c1 (relative stereo) [Example 5]

same assay, conditions: @ 2 μM compound; read-out: % inhibition

inhibition at 2 µM [%] | Compound
95 | CC(C)c1ccccc1Sc1ccc(C2CC2C(=O)NCC(=O)O)c(Cl)c1Cl (racemic) [Example 2, (±)-(2-Isopropylphenyl)[2,3-dichloro-4-(trans-(carboxymethylamino)carbonyl)cycloprop-1-yl)phenyl]sulfide]
94 | O=C(NCCCN1CCCC1=O)C1CC1c1ccc(Sc2ccccc2N2CCOCC2)c(Cl)c1 (racemic) [Example 8, (±)-(2-Morpholin-1-ylphenyl)[2-chloro-4-(trans-(2-((3-(1-pyrrolidin-2-onyl)-prop-1-ylamino)carbonyl)cycloprop-1-yl)phenyl]sulfide]
96 | CC(C)c1ccccc1Sc1ccc(C2CC2C(=O)N2CCOCC2)c(Cl)c1Cl (racemic) [Example 20, (±)-(2-Isopropylphenyl)[2,3-dichloro-4-(trans-(2-(morpholin-1-yl)carbonyl)cycloprop-1-yl)phenyl]sulfide]
94 | CC(C)c1ccccc1Sc1ccc([C@@H]2C[C@H]2C(=O)NC2CCC2)c(Cl)c1Cl (racemic) [Example 24, (±)-(2-Isopropylphenyl)[2,3-dichloro-4-(trans-2-(cyclobutylaminocarbonyl)cycloprop-1-yl)phenyl]sulfide]
95 | CC(C)c1ccccc1Sc1ccc(C2CC2C(=O)N2CCC2)c(Cl)c1Cl (racemic) [Example 25, (±)-(2-Isopropylphenyl)[2,3-dichloro-4-(trans-(2-(azetidin-1-yl)carbonyl)cycloprop-1-yl)phenyl]sulfide]

same assay, conditions: @ 4 μM compound

inhibition at 4 µM [%] | % inhibition [% @ 4 μM] | Compound
93 |  | COc1ccccc1Sc1ccc(C2CC2C(=O)NCC(=O)O)c(Cl)c1Cl (mixture of isomers) [Example 12]
95 |  | COc1ccccc1Sc1ccc(C2CC2C(=O)NCCC(=O)O)c(Cl)c1Cl (mixture of isomers) [Example 13]
94 |  | O=C(NCCCN1CCCC1=O)C1CC1c1ccc(Sc2ccccc2N2CCOCC2)c(Cl)c1 (racemic) [Example 8, (±)-(2-Morpholin-1-ylphenyl)[2-chloro-4-(trans-(2-((3-(1-pyrrolidin-2-onyl)-prop-1-ylamino)carbonyl)cycloprop-1-yl)phenyl]sulfide]
44 |  | O=C(NCCCN1CCCC1=O)C1CC1c1ccc(Sc2cccc(N3CCOCC3)c2)c(C(F)(F)F)c1 (racemic) [Example 11, (±)-(3-Morpholin-1-ylphenyl)[2-trifluoromethyl-4-(trans-(2-((3-(1-pyrrolidin-2-onyl)-prop-1-ylamino)carbonyl)cycloprop-1-yl)phenyl]sulfide]
91 |  | O=C(O)C1CC1c1ccc(Sc2ccccc2N2CCOCC2)c(Cl)c1Cl (racemic) [Example 12, (±)-(2-Morpholin-1-ylphenyl)[2,3-dichloro-4-(trans-(2-carboxycycloprop-1-yl)phenyl]sulfide]
88 |  | O=C(O)C1CC1c1ccc(Sc2ccccc2Br)c(Cl)c1Cl (racemic) [Example 15, (±)-(2-Bromophenyl)[2,3-dichloro-4-(trans-(2-carboxycycloprop-1-yl)phenyl]sulfide]
 | 96 | CC(C)c1ccccc1Sc1ccc([C@@H]2C[C@H]2C(=O)N2CCCCC2C(=O)O)c(Cl)c1Cl (mixture of isomers) [Example 19, (±)-(2-Isopropylphenyl)[2,3-dichloro-4-(trans-(2-(2-carboxypiperidin-1-yl)carbonyl)cycloprop-1-yl)phenyl]sulfide]

Further lines, the compound ahead of its results:

Compound | inhibition at 4 µM [%] | % inhibition [% @ 4 μM]
O=C(NCCCN1CCCC1=O)C1CC1c1ccc(Sc2ccccc2Br)c(C(F)(F)F)c1 (racemic) [Example 1, (±)-(2-Bromophenyl)[2-trifluoromethyl-4-(trans-(2-((3-(1-pyrrolidin-2-onyl)-prop-1-ylamino)carbonyl)cycloprop-1-yl)phenyl]sulfide] | 92 | 
(±)-(2-Isopropylphenyl)[2,3-dichloro-4-(trans-2-(cyclobutylaminocarbonyl)cycloprop-1-yl)phenyl]sulfide [Example 24] |  | 96
(±)-(2-Isopropylphenyl)[2,3-dichloro-4-(trans-(2-(4-acetylpiperazin-1-yl)carbonyl)cycloprop-1-yl)phenyl]sulfide [Example 21] |  | 96
(±)-(2-Isopropylphenyl)[2,3-dichloro-4-(trans-(2-(4-carboxypiperidin-1-yl)carbonyl)cycloprop-1-yl)phenyl]sulfide [Example 18] |  | 94
(±)-(2-Isopropylphenyl)[2,3-dichloro-4-(trans-(2-(morpholin-1-yl)carbonyl)cycloprop-1-yl)phenyl]sulfide [Example 20] |  | 96

tested on: JY-8 cells (expressing LFA-1) adhering to immobilized ICAM-1; experiment: ICAM-1/JY-8 Cell Adhesion Assay (46B); format: cell-based, human; settings: Homo sapiens; @ 1 μM compound (cell); JY-8 cell adhesion to ICAM-1
Protocol: Biologically relevant activity of the compounds in this invention was confirmed using a cell-based adhesion assay, (described below as assay 46B) which measured the ability of the present compounds to block the adherence of JY-8 cells (a human EBV-transformed B cell line expressing LFA-1 on its surface) to immobilized ICAM-1.
46B. ICAM-1 /JY-8 Cell Adhesion Assay
For measurement of inhibitory activity in the cell-based adhesion assay, 96-well microtiter plates are coated with 70 μL of recombinant ICAM-1/g (ICOS Corporation) at a concentration of 5 μg/mL in D-PBS w/o Ca^++ or Mg^++ overnight at 4° C. The wells are then washed twice with D-PBS and blocked by addition of 200 μL of D-PBS, 5% fish skin gelatin by incubation for 1 hour at room temperature. Fluorescent tagged JY-8 cells (a human EBV-transformed B cell line expressing LFA-1 on its surface; 50 μL at 2×10^6 cells/ml in RPMI 1640 (standard cell culture medium)/1% fetal bovine serum) are added to the wells. For fluorescent labeling of JY-8 cells, 5×10^6 cells washed once in RPMI 1640 are resuspended in 1 mL of RPMI 1640 containing 2 μM Calceiun AM (MolecularProbes), are incubated at 37° C for 30 minutes and washed once with RPMI-1640/1% fetal bovine serum. Dilutions of compounds to be assayed for ICAM-1/LFA-1 antagonistic activity are prepared in RPMI-1640/1% fetal bovine serum from 10 mM stock solutions in DMSO and 50 μL are added to duplicate wells. Microtiter plates are incubated for 45 minutes at room temperature and the wells are washed gently once with RPMI-1640/1% fetal bovine serum. Fluorescent intensity is measured in a fluorescent plate reader with an excitation wavelength at 485 nm and an emission wavelength at 530 nm. The percent inhibition of a candidate compound at a given concentration is calculated using the following equation: [formula]
and these concentration/inhibition data are used to generate dose response curves, from which IC50 values are derived.

Compound | inhibition at 1 µM [%]
O=C(NCCCN1CCCC1=O)C1CC1c1ccc(Sc2ccccc2N2CCOCC2)c(C(F)(F)F)c1 (racemic) [Example 7, (±)-(2-Morpholin-1-ylphenyl)[2-trifluoromethyl-4-(trans-(2-((3-(1-pyrrolidin-2-onyl)-prop-1-ylamino)carbonyl)cycloprop-1-yl)phenyl]sulfide] | 84

same assay, conditions: Homo sapiens; @ 2 μM compound (cell); JY-8 cell adhesion to ICAM-1

Compound | inhibition at 2 µM [%]
CC(C)c1ccccc1Sc1ccc(C2CC2C(=O)N2CCCC(C(=O)O)C2)c(Cl)c1Cl (racemic) [Example 3, (±)-(2-Isopropylphenyl)[2,3-dichloro-4-(trans-(2-(3-carboxypiperidine))carbonyl)cycloprop-1-yl)phenyl]sulfide] | 90
CC(C)c1ccccc1Sc1ccc(C2CC2C(=O)NCCCC(=O)O)c(Cl)c1Cl (racemic) [Example 17, (±)-(2-Isopropylphenyl)[2,3-dichloro-4-(trans-(2-(3-carboxypropylamino)carbonyl)cycloprop-1-yl)phenyl]sulfide] | 86
CC(C)c1ccccc1Sc1ccc(C2CC2C(=O)NCCCN2CCCC2=O)c(Cl)c1Cl (racemic) [Example 22, (±)-(2-Isopropylphenyl)[2,3-dichloro-4-(trans-(2-((3-(1-pyrrolidin-2-onyl)-prop-1-ylamino)carbonyl)cycloprop-1-yl)phenyl]sulfide] | 92

same assay, conditions: Homo sapiens; @ 4 μM compound; JY-8 cell adhesion to ICAM-1

Compound | inhibition at 4 µM [%]
O=C(NCCCN1CCCC1=O)C1CC1c1ccc(Sc2ccccc2N2CCOCC2)c(Cl)c1 (racemic) [Example 8, (±)-(2-Morpholin-1-ylphenyl)[2-chloro-4-(trans-(2-((3-(1-pyrrolidin-2-onyl)-prop-1-ylamino)carbonyl)cycloprop-1-yl)phenyl]sulfide] | 70
O=C(NCCCN1CCCC1=O)C1CC1c1ccc(Sc2ccccc2N2CCCC2)c(C(F)(F)F)c1 (racemic) [Example 10, (±)-(2-Pyrrolidin-1-ylphenyl)[2-trifluoromethyl-4-(trans-(2-((3-(1-pyrrolidin-2-onyl)-prop-1-ylamino)carbonyl)cycloprop-1-yl)phenyl]sulfide] | 72
